According to patent EP0614887B1, “Indole-sulfonamides as antitumor agents” (ELI LILLY AND COMPANY, priority 1993, dated 1994):

Tests used:
[1] = test system: VRC5 human colon adenocarcinomas; assay: Antitumor activity in mice bearing human colon xenograft VRC5, oral dosing; assay type: in vivo, CD1 Nu/Nu mice; conditions: VRC5 tumor, daily for 10 days; for Percent Inhibition: inhibition of tumor growth vs control; for Toxic/Total: mice which died / total animals in group
Source text: One of the tumor models used for showing the anti-neoplastic activity of the sulfonylureas of this invention was the human colon xenograft VRC5. J.A. Houghton and D.M. Taylor, British Journal of Cancer, 37:213-223 (1978). This tumor was obtained from St. Jude's Children's Research Hospital and has been widely used as a human tumor model.
(§1) First passage tumors were stored in liquid nitrogen, using standard techniques. The transplanted tumor was reestablished from the Tumor Bank every six months or as needed. The tumor was maintained by serial passage twice weekly in the host mice.
(§2) In the procedures utilized here, the tumor was removed from passage animals and minced into cubic fragments having 1 to 3 mm edges using sterile techniques. Tumor pieces were checked for sterility using both Antibiotic Medium 1 and Brain Heart Infusion (Difco, Detroit, Michigan). The xenograft tumor pieces were implanted into the recipient CD1 Nu/Nu mice subcutaneously in an axillary site by trochar. The allograft 6C3HED tumor pieces were implanted into the recipient C3H mice in an analogous fashion.
(§3) Drug therapy on the appropriate schedule was initiated seven days after tumor implantation for the mice bearing the xenograft tumors, one day after implantation for the mice bearing the 6C3HED lymphosarcoma. The compound being tested was mixed with 2.5% Emulphor EL620 from GAF Corporation (1:40 dilution in 0.9% saline). The total dosage volume for each administration was 0.5 ml. All animals were weighed at the beginning and end of administration of the subject compounds. Food and water were provided ad libitum.
(§4) Each control group and each dosage level of the treated groups consisted of 9 or 10 mice selected at random from the pool of implanted animals. The formulations were administered orally by gavage with the use of an 18-gauge needle. Compounds were dosed daily for 10 days for the studies using the human tumor xenografts and 8 days for the studies using the allograft.
(§5) The tumor was measured five days after treatment ended with two dimensional measurements (width and length) of the tumor taken using digital electronic calipers interfaced to a microcomputer. J.F. Worzalla, et al., Investigational New Drugs, 8:241-251 (1990). Tumor weights were calculated from these measurements using the following formula: Tumor weight (mg) =[…] [formula] At least one control group of an equal number of mice was treated with the same volume of 2.5% Emulphor only. The percent inhibition is determined by subtracting the ratio of the mean tumor size of the test group relative to the control group from one and multiplying the result by 100.
(§6) The results of several experiments in mice bearing the VRC5 human colon adenocarcinomas, and the 6C3HED lymphosarcoma when the Formula I compounds were administered orally are provided in Table I. In the table, Column 1 refers to the example number of the compound tested; Column 2 describes the particular human tumor xenograft or mouse allograft being studied; Column 3 gives the dosage level of the compound of Formula I in milligrams per kilogram of body weight; Column 4 describes the percent inhibition of tumor growth; and Column 5 tallies the number of mice which died during the course of the experiment relative to the total number of animals in the group.

6C3HED lymphosarcoma = assay: Antitumor activity in mice bearing allograft 6C3HED lymphosarcoma, oral dosing; assay type: in vivo, C3H mice; conditions: 6C3HED tumor, daily for 8 days; for Percent Inhibition: inhibition of tumor growth vs control; for Toxic/Total: mice which died / total animals in group
Source text: Another tumor model employed C3H mice bearing the widely used allograft 6C3HED lymphosarcoma, also known as the Gardner lymphosarcoma (GLS). The 6C3HED lymphosarcoma was obtained from the Division of Cancer Treatment, National Cancer Institute, Tumor Bank, maintained at E. G. and G. Mason Research (Worcester, Massachusetts).
as §1, §2, §3, §4, §5, §6

Compound	Percent Inhibition ([1]; 20 mg/kg orally by gavage) [%]	Toxic/Total ([1]; 20 mg/kg orally)	Percent Inhibition ([1]; 40 mg/kg orally by gavage) [%]	Toxic/Total ([1]; 40 mg/kg orally)	Percent Inhibition ([1]; 80 mg/kg orally by gavage) [%]	Toxic/Total ([1]; 80 mg/kg orally)	Percent Inhibition (6C3HED lymphosarcoma; 280 mg/kg orally by gavage) [%]	Toxic/Total (6C3HED lymphosarcoma; 280 mg/kg orally)	Percent Inhibition (6C3HED lymphosarcoma; 450 mg/kg orally by gavage) [%]	Toxic/Total (6C3HED lymphosarcoma; 450 mg/kg orally)	Percent Inhibition (6C3HED lymphosarcoma; 900 mg/kg orally by gavage) [%]	Toxic/Total (6C3HED lymphosarcoma; 900 mg/kg orally)
N-[[(3,4-dichlorophenyl)amino]carbonyl]-1-methyl-1H-indole-5-sulfonamide [Example 3]	81	1/9	95	1/10	100	0/10	–	–	–	–	–	–
O=C(Nc1ccc(Cl)cc1)NS(=O)(=O)c1ccc2c(c1)CCN2 [Example 1, N-[[(4-chlorophenyl)amino]carbonyl]-2,3-dihydro-1H-indole-5-sulfonamide]	–	–	–	–	–	–	44	0/9	–	–	–	–
O=C(Nc1ccc(Cl)c(Cl)c1)NS(=O)(=O)c1ccc2c(c1)CCN2 [Example 2, N-[[(3,4-dichlorophenyl)amino]carbonyl]-2,3-dihydro-1H-indole-5-sulfonamide]	18	0/9	56	0/9	–	–	–	–	100	0/10	100	1/10
